Source: PubChem BioAssay (NCI)
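Here, GI50 denotes the concentration required for 50% inhibition of growth. TGI is the concentration that stops growth completely.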

Key:
Test in all cases: NCI tumour cell line growth inhibition, 384-well format
A549 NSCLC = test system: A549 NSCLC
UO-31 renal = test system: UO-31 renal
MOLT-4 leukemia = test system: MOLT-4 leukemia
A498 renal = test system: A498 renal
CCRF-CEM leukemia = test system: CCRF-CEM leukemia
SK-MEL-28 melanoma = test system: SK-MEL-28 melanoma
SNB-19 CNS = test system: SNB-19 CNS
MDA-MB-468 breast = test system: MDA-MB-468 breast
OVCAR-4 ovarian = test system: OVCAR-4 ovarian
HT29 colon = test system: HT29 colon
MDA-MB-435 melanoma = test system: MDA-MB-435 melanoma
SN12C renal = test system: SN12C renal
UACC-257 melanoma = test system: UACC-257 melanoma
NCI-H226 lung = test system: NCI-H226 lung
PC-3 prostate = test system: PC-3 prostate
CAKI-1 renal = test system: CAKI-1 renal
OVCAR-3 ovarian = test system: OVCAR-3 ovarian
COLO 205 colon = test system: COLO 205 colon
NCI/ADR-RES ovarian = test system: NCI/ADR-RES ovarian
UACC-62 melanoma = test system: UACC-62 melanoma
HCT-116 colon = test system: HCT-116 colon
SK-MEL-2 melanoma = test system: SK-MEL-2 melanoma
OVCAR-8 ovarian = test system: OVCAR-8 ovarian
MCF7 breast = test system: MCF7 breast
K-562 leukemia = test system: K-562 leukemia
HS 578T breast = test system: HS 578T breast
RXF 393 renal = test system: RXF 393 renal
BT-549 breast = test system: BT-549 breast
SF-268 CNS = test system: SF-268 CNS
OVCAR-5 ovarian = test system: OVCAR-5 ovarian
786-0 renal = test system: 786-0 renal
MALME-3M melanoma = test system: MALME-3M melanoma
ACHN renal = test system: ACHN renal
SF-295 CNS = test system: SF-295 CNS
SNB-75 CNS = test system: SNB-75 CNS
MDA-MB-231 breast = test system: MDA-MB-231 breast
SW-620 colon = test system: SW-620 colon
RPMI-8226 leukemia = test system: RPMI-8226 leukemia
SK-OV-3 ovarian = test system: SK-OV-3 ovarian
HL-60(TB) leukemia = test system: HL-60(TB) leukemia
NCI-H322M lung = test system: NCI-H322M lung
NCI-H522 lung = test system: NCI-H522 lung
DU-145 prostate = test system: DU-145 prostate
HOP-62 NSCLC = test system: HOP-62 NSCLC
IGROV1 ovarian = test system: IGROV1 ovarian
M14 melanoma = test system: M14 melanoma
SR leukemia = test system: SR leukemia

Compound `CNC(=O)c1ccc(-c2cnc3ncc(Cc4ccc5ncccc5c4)n3n2)cc1F` has a GI50 (A549 NSCLC) greater than 100 µM, a TGI (A549 NSCLC) greater than 100 µM and a GI50 (UO-31 renal) greater than 100 µM. The TGI (UO-31 renal) was greater than 100 µM, the GI50 (MOLT-4 leukemia) was greater than 100 µM and the TGI (MOLT-4 leukemia) was greater than 100 µM. The GI50 (A498 renal) was greater than 100 µM, the TGI (A498 renal) was greater than 100 µM and the GI50 (CCRF-CEM leukemia) was greater than 100 µM. It also gave a TGI (CCRF-CEM leukemia) greater than 100 µM, a GI50 (SK-MEL-28 melanoma) greater than 100 µM and a TGI (SK-MEL-28 melanoma) greater than 100 µM. It also gave a GI50 (SNB-19 CNS) greater than 100 µM, a TGI (SNB-19 CNS) greater than 100 µM and a GI50 (MDA-MB-468 breast) greater than 100 µM. The TGI (MDA-MB-468 breast) was greater than 100 µM, the GI50 (OVCAR-4 ovarian) was greater than 100 µM and the TGI (OVCAR-4 ovarian) was greater than 100 µM. For the same compound, the GI50 (HT29 colon) was greater than 100 µM, the TGI (HT29 colon) was greater than 100 µM and the GI50 (MDA-MB-435 melanoma) was greater than 100 µM. For the same compound, the TGI (MDA-MB-435 melanoma) was greater than 100 µM, the GI50 (SN12C renal) was greater than 77.6 µM and the TGI (SN12C renal) was greater than 100 µM. The GI50 (UACC-257 melanoma) was greater than 100 µM, the TGI (UACC-257 melanoma) was greater than 100 µM and the GI50 (NCI-H226 lung) was greater than 100 µM. It also gave a TGI (NCI-H226 lung) greater than 100 µM, a GI50 (PC-3 prostate) greater than 100 µM and a TGI (PC-3 prostate) greater than 100 µM. It also gave a GI50 (CAKI-1 renal) greater than 100 µM, a TGI (CAKI-1 renal) greater than 100 µM and a GI50 (OVCAR-3 ovarian) greater than 100 µM. It also gave a TGI (OVCAR-3 ovarian) greater than 100 µM, a GI50 (COLO 205 colon) greater than 100 µM and a TGI (COLO 205 colon) greater than 100 µM. For the same compound, the GI50 (NCI/ADR-RES ovarian) was greater than 100 µM, the TGI (NCI/ADR-RES ovarian) was greater than 100 µM and the GI50 (UACC-62 melanoma) was greater than 100 µM. For the same compound, the TGI (UACC-62 melanoma) was greater than 100 µM, the GI50 (HCT-116 colon) was greater than 100 µM and the TGI (HCT-116 colon) was greater than 100 µM. It also gave a GI50 (SK-MEL-2 melanoma) greater than 100 µM, a TGI (SK-MEL-2 melanoma) greater than 100 µM and a GI50 (OVCAR-8 ovarian) greater than 100 µM. It also gave a TGI (OVCAR-8 ovarian) greater than 100 µM, a GI50 (MCF7 breast) greater than 100 µM and a TGI (MCF7 breast) greater than 100 µM. For the same compound, the GI50 (K-562 leukemia) was greater than 100 µM, the TGI (K-562 leukemia) was greater than 100 µM and the GI50 (HS 578T breast) was greater than 100 µM. The TGI (HS 578T breast) was greater than 100 µM, the GI50 (RXF 393 renal) was greater than 43.1 µM and the TGI (RXF 393 renal) was greater than 100 µM. It also gave a GI50 (BT-549 breast) greater than 100 µM, a TGI (BT-549 breast) greater than 100 µM and a GI50 (SF-268 CNS) greater than 76.9 µM. The TGI (SF-268 CNS) was greater than 100 µM, the GI50 (OVCAR-5 ovarian) was greater than 100 µM and the TGI (OVCAR-5 ovarian) was greater than 100 µM. The GI50 ([…]-0 renal) was greater than 87.7 µM, the TGI (786-0 renal) was greater than 100 µM and the GI50 (MALME-3M melanoma) was greater than 100 µM. The TGI (MALME-3M melanoma) was greater than 100 µM, the GI50 (ACHN renal) was greater than 100 µM and the TGI (ACHN renal) was greater than 100 µM. It also gave a GI50 (SF-295 CNS) greater than 72.6 µM, a TGI (SF-295 CNS) greater than 100 µM and a GI50 (SNB-75 CNS) greater than 61.6 µM. For the same compound, the TGI (SNB-75 CNS) was greater than 94.5 µM, the GI50 (MDA-MB-231 breast) was greater than 100 µM and the TGI (MDA-MB-231 breast) was greater than 100 µM. For the same compound, the GI50 (SW-620 colon) was greater than 100 µM, the TGI (SW-620 colon) was greater than 100 µM and the GI50 (RPMI-8226 leukemia) was greater than 100 µM. The TGI (RPMI-8226 leukemia) was greater than 100 µM, the GI50 (SK-OV-3 ovarian) was greater than 100 µM and the TGI (SK-OV-3 ovarian) was greater than 100 µM. It also gave a GI50 (HL-60(TB) leukemia) greater than 100 µM, a TGI (HL-60(TB) leukemia) greater than 100 µM and a GI50 (NCI-H322M lung) greater than 100 µM. For the same compound, the TGI (NCI-H322M lung) was greater than 100 µM, the GI50 (NCI-H522 lung) was greater than 100 µM and the TGI (NCI-H522 lung) was greater than 100 µM. The GI50 (DU-145 prostate) was greater than 100 µM, the TGI (DU-145 prostate) was greater than 100 µM and the GI50 (HOP-62 NSCLC) was greater than 100 µM. The TGI (HOP-62 NSCLC) was greater than 100 µM, the GI50 (IGROV1 ovarian) was greater than 100 µM and the TGI (IGROV1 ovarian) was greater than 100 µM. The GI50 (M14 melanoma) was greater than 100 µM, the TGI (M14 melanoma) was greater than 100 µM and the GI50 (SR leukemia) was greater than 50.9 µM. It also gave a TGI (SR leukemia) greater than 100 µM.
